Reference: US10738310B2, “Treating cancer deficient in FANCA, FANCD2, FANCE, or FANCG with an ATM inhibitor” (Dana-Farber Cancer Institute, Inc., priority 2006, dated 2020)

Test system: FANCE protein
Assay: Western blot of FANCE level in synchronized HeLa cells
Format: cell-based, human
Conditions: S phase HeLa; HU 2 mM 24 hr; MMC 160 ng/ml 24 hr; Cisplatin 10 μM 24 hr
Experimental: FIG. 24B is a photograph of a Western blot showing FANCE phosphorylation by Chk1 promotes its degradation. HeLa cells were synchronized by double-thymidine block, and then released into S phase. One hour after release, the cells were either untreated (Control) or treated with UV (60 J/m^2, 15 hr), HU, (2 mM, 24 hr), MMC (160 ng/ml, 24 hr) and Cisplatin, (10 μM 24 hr). Whole cell extracts were analyzed by Western blot with the indicated antibodies. Anti-β-Tubulin blot was used as a loading control.
HeLa cells were synchronized at the G1-S boundary with double-thymidine block and released the cells into S phase for 1 hour before DNA damage treatment. […] UV-inducible FANCE degradation was also observed in other cell lines, including U2OS, GM0637 and HEK293T cells (FIG. 27B).

SMILES	level of FANCE protein
NC(=O)NO [HU]	significantly decreased
N.N.[Cl][Pt][Cl] [cisplatin]	significantly decreased
